Reference: patent publication US20210169992A1, “COMPOSITIONS AND METHODS FOR INHIBITING THE PRODUCTION OR ACTIVITY OF D-2HYDROXYGLUTARATE IN SUBJECTS AFFLICTED WITH CANCER” (President and Fellows of Harvard College, priority 2019, published 2021)
Entries after “also recorded” stand apart in the source; their conditions may differ.

Key:
Assay type in all cases: cell-based
T cells [1] = test: Metabolite profiling during time course of T cell activation with and without D-2HG; conditions: T cells activated with vs without D-2HG; FIG. 1
Description: Log 2 fold change was normalized to the average levels of control group.

T cells [2] = test: TCA cycle metabolite levels after 48 hour treatment upon T cell activation; conditions: FIG. 2
Method: A 2 day treatment of 1 mM NMN was used as a positive control. *P<0.05, **P<0.01 (Student's t test and two-way ANOVA).

GL261 cells = test: Mitochondrial membrane potential by TMRE staining in GL261 cells; conditions: cancer cells (GL261); FIG. 3
Method: Mitochondrial membrane potential was measured by TMRE staining in control, D-2HG, and L-2HG treated GL261 cells.

T cells [3] = test: Mitochondrial membrane potential by TMRE staining in T cells; conditions: FIG. 4, FIG. 7
Description: (§1) H2O2 and NAC were used as positive and negative controls, respectively. *P<0.05, **P<0.01, ***P<0.001, ****P<0.0001 (Two-way ANOVA).

T cells [4] = test: ROS levels following 24 hour treatment; conditions: FIG. 7
Description: as §1

T cells [5] = test: T cell proliferation upon activation by Cell Trace Violet staining; conditions: different concentrations of D-2HG, FIG. 6
T cells [6] = test: Apoptosis by Annexin and PI staining; conditions: after 24 hours of treatment; FIG. 6
D2HGDH = target: T1, D2HGDH (Homo sapiens, UniProt Q8N465); test: Isotope tracing of uniformly carbon labeled D-2HG into the TCA cycle; conditions: FIG. 8
T1 construct: endogenous in cells
T1 sequence (Q8N465 14-521): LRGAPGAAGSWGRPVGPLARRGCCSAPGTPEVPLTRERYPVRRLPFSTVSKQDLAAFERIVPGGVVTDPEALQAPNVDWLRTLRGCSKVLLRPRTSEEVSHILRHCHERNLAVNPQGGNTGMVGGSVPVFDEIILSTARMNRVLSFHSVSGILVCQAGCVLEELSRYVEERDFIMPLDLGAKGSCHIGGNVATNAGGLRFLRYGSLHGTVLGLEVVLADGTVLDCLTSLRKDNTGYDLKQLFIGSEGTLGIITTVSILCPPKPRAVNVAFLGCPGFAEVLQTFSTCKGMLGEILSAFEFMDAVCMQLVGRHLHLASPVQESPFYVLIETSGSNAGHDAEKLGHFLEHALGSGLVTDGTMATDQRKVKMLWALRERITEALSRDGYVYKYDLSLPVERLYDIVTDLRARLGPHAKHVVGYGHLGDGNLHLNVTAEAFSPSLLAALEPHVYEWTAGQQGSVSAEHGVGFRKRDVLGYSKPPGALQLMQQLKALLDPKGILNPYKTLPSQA

T cells [7] = test: Effector function and antigen specific killing assay, OT-1 T cells against B16 OVA+ or OVA− tumor cells
Description: Data were normalized to cell number. […] Data were normalized to cell number.

T cells [8] = test: D-2HG uptake in T cells
Description: as §1

T cells [9] = test: Mitochondrial respiration / electron transport chain function in T cells; conditions: D-2HG treated T cells, stress conditions
Description: as §1

Row | Structure (SMILES) | effect on T cell metabolism upon activation (T cells [1]) | TCA cycle metabolite levels (T cells [2]) | mitochondrial membrane potential (TMRE) (GL261 cells) | mitochondrial membrane potential (TMRE) (T cells [3]) | ROS production (T cells [4]) | T cell proliferation (T cells [5]) | apoptosis (T cells [6]) | metabolism of D-2HG (D2HGDH) | expression of effector markers (T cells [7]; D-2HG treated T cells) | antitumor activity / killing by treated T cells (T cells [7]; T cells activated in presence of D-2HG, FIG. 9) | uptake by T cells (T cells [8]) | ETC function (T cells [9])
1 | O=C(O)CC[C@@H](O)C(=O)O [D-2HG, D-2hydroxyglutarate] | causes broad changes in T cell metabolism upon activation | causes accumulation of TCA cycle metabolites | mild effect on mitochondrial membrane potential | causes mitochondrial hyperpolarization | increased ROS production | slows down proliferation | promotes apoptosis | is metabolized by D2HGDH | increased expression of effector markers | reduced killing; also recorded: results in the generation of effector T cells with inferior antitumor activity | is taken up by T cells | ETC function is impaired under stress conditions
2 | N#CC(C#N)=NNc1ccc(OC(F)(F)F)cc1 [FCCP, reference compound] |  |  |  | decouples membrane potential in both control and D-2HG treated conditions |  |  |  |  |  |  |  | 
